Results reported in patent US20250282802A1, “P[…] AND METHODS” (priority 2020, published 2025).
Read-outs that look alike come from different tables or passages of the source.

Columns and labels:
onion bulbs = experiment: Onion bioactivity assay (center rot); assay type: in vivo, Allium cepa (onion); conditions: 30° C.
Method: Onion bioactivity assays. Yellow onions purchased from a local market were surface sterilized in a laminar flow biosafety hood as follows. First, the outermost layers with any damage or browning were removed and discarded, followed by soaking for 10 minutes in 10% bleach. The onions were then rinsed three times with sterile dH2O, followed by soaking in 70% EtOH for an additional 10 minutes, then rinsed four times with sterile dH2O. The onions were left in a biosafety laminar flow hood until water and ethanol were completely evaporated. For testing virulence of microbial strains, the onions were inoculated by stabbing with a previously sterilized wooden toothpick dipped into a bacterial cell suspension (1×10^3 CFU/mL in 1×PBS buffer). Chemical complementation studies were performed by addition of 100 μL of filter-sterilized sample into the hole created by the toothpick during inoculation. For testing bioactivity of crude and purified chemical samples in the absence of bacteria, holes were punched in sterilized onions using sterile toothpicks followed by addition of 100 μL of a filter-sterilized sample. Following inoculation and/or treatment with filter-sterilized compounds, the onions were placed in zip-lock plastic bags and incubated at 30° C. in the dark for the indicated number of days. […]

[1] = test system: Pseudomonas aeruginosa PAO1; experiment: Antibacterial bioassay (MIC), Pseudomonas aeruginosa; assay type: cell-based; conditions: CLSI
Method: Antibacterial bioassays. Susceptibility testing for the ESKAPE pathogens and Salmonella enterica LT2 was performed using a Kirby-Bauer method as outlined by the Clinical and Laboratory Standards Institute (CLSI). For rich media bioassays, Mueller Hinton Broth 2 (MH-2, Sigma-Aldrich, 90922) was used for all strains except 1% BHI was supplemented for Enterococcus faecalis ATCC 19433. For minimal media bioassays, glucose-MOPS minimal medium was used. Briefly, overnight bacterial cultures were sub-cultured and inoculated into 5 mL top agar (0.7% agar) for final concentration of 5×10^5 CFU/mL. Then, 20 μL of a compound 2-fold dilution series (200, 100, 50, 25, 12.5, 6.25 μM in water) was spotted on 6 mm diameter blank paper discs (BD BBL™ 231039). Control discs received 20 μL of 50 mg/mL kanamycin. Plates were incubated at 35° C. for 20-24 hours. […] Sensitivity of the IPTG-inducible phosphonate uptake strain WM6242 to pantaphos was tested using a disk diffusion assay. Plates containing growth medium were overlayed with 5 mL of top agar (0.7% agar) inoculated with 100 μL (OD600=0.8) of the phosphonate-specific E. coli indicator strain (WM6242) with or without addition of 1 mM IPTG. WM6242 is engineered with an IPTG-inducible, non-specific phosphonate uptake system (phnCDE). […]

SK-ML-28 (melanoma) = experiment: Cytotoxicity profiling (Alamar Blue), SK-ML-28; assay type: cell-based; conditions: Homo sapiens; SK-ML-28, Alamar Blue, 72-hour treatment
Method: FIG. 8. Cytotoxicity of pantaphos across various cancer cell lines. Assays were conducted as described (mBio. 2021 Feb. 2; 12(1):e03402-20), using the Alamar Blue method with 72-hour treatment using Raptinal ([…]) as Dead cell control; n=3. Cell seeding densities: CT26 (colon carcinoma) 2000 c/w; HOS (osteosarcoma) 2500 c/w; ES-2 (ovarian carcinoma), HCT-116 (colorectal carcinoma), A-549 (lung carcinoma), A-172 (glioblastoma), D54 (glioblastoma), U87 (glioblastoma), T98G (glioblastoma), SK-ML-28 (melanoma), MCF-7 (breast cancer), AM38 (glioblastoma) and MDA-MB-231 (breast cancer) 3000 c/w; U118MG (malignant glioma) 4000 c/w; HepG2 (liver cancer) 8000 c/w. c/w=cells per well. […]
Cell culture cytotoxicity screening. The compounds were evaluated for their ability to kill cancer cell lines in culture, using HOS (osteosarcoma); ES-2 (ovarian cancer); HCT 116 (colon cancer); A549 (lung carcinoma); and A172 (glioma) cells. Human skin fibroblast cells (HFF-1) were also assessed. […] 72 hours post-treatment, cell viability was assessed using the Alamar Blue method (http://www.bio-rad-antibodies.com/measuring-cytotoxicity-proliferation-spectrophotometry-fluorescence-alamarBlue.html). […] Conversion of Alamar Blue was measured with a plate reader (SpectraMax M3; Molecular Devices) by fluorescence (excitation wavelength: 555 nm; emission wavelength: 585 nm; cutoff 570 nm; autogain). […]

Compound: O=C(O)/C=C(\C(=O)O)C(O)P(=O)(O)O (centres unmarked) [pantaphos, 2-(hydroxy(phosphono)methyl)maleate]
- onion center rot on co-inoculation with the P. ananatis hvr deletion mutant (chemical complementation) (onion bulbs; co-inoculated with hvr mutant): resulted in onion rot
- onion rot lesions after injection in the absence of bacteria (onion bulbs; surface sterilized onion bulbs, 100 μL filter-sterilized sample, no bacteria): severe onion rot lesions
- MIC ([1]; Mueller-Hinton 2 medium, read-out: MIC, Rich medium): > 200 µM
- MIC ([1]; glucose-MOPS minimal medium, read-out: MIC, Minimal medium): > 200 µM
- Emax (SK-ML-28 (melanoma)): 47 to 51%
